Measurements: paper PMC11443480, “Natural Rubrolides and Their Synthetic Congeners as Inhibitors of the Photosynthetic Electron Transport Chain” (Journal of Natural Products, 2024)
Several values for one entry are separate records, joined by “and”; a condition that tells them apart may be missing. Equal entries are not always repeated. Entries after “also recorded” stand apart in the source; their conditions may differ.

Tests used:
[1] = system: photosynthetic electron transport chain in isolated spinach thylakoids; experiment: Hill reaction: light-dependent ferricyanide reduction in isolated spinach thylakoids (basal); type: biochemical, spinach (Spinacea oleracea L.); conditions: basal conditions, 0.05–100 μM tested, triplicate; for IC50: read-out: IC50, inhibition by 50% of the light-dependent ferricyanide reduction
Description: The ability of natural rubrolides and their synthetic analogues to interfere with the chloroplast electron transport chain was evaluated by measuring the Hill reaction in thylakoid membranes isolated from spinach leaves. The results were summarized as the concentrations able to inhibit by 50% the rate measured in untreated controls (IC50, Table 2).
Thylakoid membranes were isolated from spinach (Spinacea oleracea L.) leaves. Plant material was resuspended in 5 mL g^–1 of ice-cold 20 mM Tricine-NaOH buffer (pH 8.0) containing 10 mM NaCl, 5 mM MgCl2, and 0.4 M sucrose and homogenized for 30 s in a blender at maximal speed. The homogenate was filtered through surgical gauze, and the filtrate was centrifuged at 4 °C for 1 min at 500g; the supernatant was further centrifuged for 10 min at 1,500g. Pelleted chloroplasts were osmotically swollen by resuspension in a sucrose-lacking buffer. The suspension was immediately diluted 1:1 with sucrose-containing buffer, kept on ice in the dark, and used within a few hours from the preparation. Chlorophyll content was calculated after diluting with 80% (v/v) acetone on the basis of Arnon’s formula. The basal rate of photosynthetic electron transport was measured by following light-driven ferricyanide reduction. Membrane aliquots corresponding to 3 μg of chlorophyll were incubated at 24 °C in wells of 96-well-plates in a final volume of 200 μL in the presence of 20 mM Tricine-NaOH buffer (pH 8.0), 10 mM NaCl, 5 mM MgCl2, 0.2 M sucrose, and 2 mM K3Fe(CN)6. The assay was initiated by exposure to saturating light (600 μmol m^–2 s^–1), and the rate of ferricyanide reduction was measured at 30 s intervals for 10 min using a Ledetect 96 plate reader (Labexim, Lengau, Austria) equipped with a LED plugin at 420 nm. Activity was calculated over the linear portion of the curve from a molar extinction coefficient of 1,000 M^–1 cm^–1. Rubrolides were dissolved in DMSO to obtain 10 mM solutions, which were then diluted with H2O, as appropriate. Their effect upon the Hill reaction was evaluated in parallel assays in which the compounds were added to the reaction mixture to concentrations ranging from 0.05 to 100 μM. Each dose was carried out at least in triplicate, and results were expressed as percentage of untreated controls. Mean values ± SE over replicates are reported. The concentrations causing 50% inhibition (IC50) and their confidence limits were estimated by nonlinear regression analysis using Prism 6 for Windows, version 6.03 (GraphPad Software).

[2] = system: rapeseed; design: method as in PMID 38695089; conditions: cited from earlier work; for Inhibition of rapeseed growth: greenhouse treatments
[3] = system: photosynthetic electron transport chain in isolated spinach chloroplast; experiment: Ferricyanide reduction under uncoupling and phosphorylating conditions; type: biochemical, spinach (Spinacea oleracea L.); conditions: 10^–7 to 10^–5 M range
Description: Diuron was included as a positive control.
(§1) Phosphorylating electron flow was evaluated under the same conditions but in the presence of 0.5 mM ADP and 2 mM K2HPO4. Uncoupled activity was measured following the addition of 2 mM NH4Cl to the basal reaction mixture containing aliquots of membrane preparations corresponding to 1.5 μg of chlorophyll. To evaluate the effect on PSII only, uncoupled activity was blocked by the addition of the cytochrome b6f inhibitor 2,5-dibromo-6-isopropyl-3-methyl-1,4-benzoquinone (DBMIB) at […], and an electronic transfer from H2O to ferricyanide that excludes PSI (H2O → PSII → D1 protein → phenylendiamine → ferricyanide) was restored through the addition of 0.1 mM phenylenediamine. In this case, due to the lower reduction rate, aliquots of membrane preparations corresponding to 6 μg of chlorophyll were used.

[4] = molecular target: T1, PSII (Spinacia oleracea, UniProt P69560); experiment: Partial electron flow involving PSII only (excluding PSI); type: biochemical, spinach (Spinacea oleracea L.); conditions: DBMIB-blocked, phenylenediamine-restored flow excluding PSI
T1 construct: Thylakoid membranes were isolated from spinach (Spinacea oleracea L.) leaves; from tissue; host or cells: spinach leaves (thylakoid membranes)
From the text: An interference with the cytochrome b6f complex cannot be completely excluded, but this difference could simply rely on the experimental conditions employed. To evaluate the effect on PSII only, uncoupled activity is blocked by the addition of the cytochrome b6f inhibitor 2,5-dibromo-6-isopropyl-3-methyl-1,4-benzoquinone, and an electronic transfer from H2O to ferricyanide that excludes PSI is restored through addition of phenylenediamine. […] A similar effect was previously noticed also in the case of other inhibitors.[10b],[10e],[10j]
as §1

[5] = system: Raphanus sativus; experiment: Growth of Raphanus sativus seedlings sown in the presence of the compound; type: in vivo, Raphanus sativus cv Scarlet Champion; conditions: 10 μM in agarized medium; growth measured at three-leaf stage, 3 weeks after sowing
Description: The ability of these compounds to interfere with plant growth was evaluated by measuring the growth of Raphanus sativus seedlings that had been sown in the presence of a given rubrolide. […] In that case, compound 5 was also found inhibitory, but at a 20-fold higher concentration (200 μM).
Figure 1 Effect of natural rubrolides 1–7 on the growth of the model plant Raphanus sativus. Seeds were sown in the presence of a given compound at a concentration of 10 μM. Controls received the same volume of DMSO (0.1%) used to dissolve the rubrolides. The commercial herbicide hexazinone was also included, as a positive control. Growth was measured when untreated plants reached the three-leaf stage, 3 weeks after sowing. Results were analyzed using Prism 6 for Windows by means of the Kolmogorov–Smirnov normality test (P = 0.05), and then subjected to 1-way ANOVA. […] Results were plotted as a box and whiskers plot showing 10–90th percentiles.
Seeds of Raphanus sativus cv Scarlet Champion were surface sterilized by treatment with ethanol for 4 min and with 3% NaClO containing 0.04% Triton X-100 for 8 min under vacuum. […] The fresh biomass of each seedling was measured at that point by a destructive harvest. […]

Molecule	IC50 [1]	melting point	also measured
COc1ccc(/C=C2\OC(=O)C=C2c2ccc(O)cc2)cc1 [Compound 6, rubrolide F]	> 25 µM and 29.3 µM		Inhibition of rapeseed growth [2]: inhibit rapeseed growth
rubrolide I [Compound 2]	5.54 ± 0.98 µM		Effect on ferricyanide reduction under uncoupling and phosphorylating conditions [3]: progressive reduction of the activity; Effect on partial electron flow involving PSII only versus whole transport chain [4]: able to inhibit the electron transfer from PSII to the cytochrome b6f complex
rubrolide C			Inhibition of rapeseed growth [2]: inhibit rapeseed growth
O=C1O/C(=C\c2ccc(O)c(Br)c2)C(c2ccc(O)c(Cl)c2)=C1Cl [Compound 20, (Z)-5-(3-Bromo-4-hydroxybenzylidene)-3-chloro-4-(3-chloro-4-hydroxyphenyl)furan-2(5H)-one]	4.97 ± 1.05 µM	210 to 213 °C (dec.)	Effect on ferricyanide reduction under uncoupling and phosphorylating conditions [3]: progressive reduction of the activity; Effect on partial electron flow involving PSII only versus whole transport chain [4]: able to inhibit the electron transfer from PSII to the cytochrome b6f complex
O=C1O/C(=C\c2ccc(F)cc2Cl)C(c2ccccc2)=C1Cl [Compound 13]	35.9 ± 7.7 µM	145.3 to 147 °C	
CN(C)C(=O)Nc1ccc(Cl)c(Cl)c1 [Diuron, reference compound]	0.27 ± 0.01 µM		Effect on partial electron flow involving PSII only versus whole transport chain [4]: very similar effectiveness
COc1ccc(C2=C(Cl)C(=O)O/C2=C\c2ccc(OC)c(Br)c2)cc1Cl [Compound 19]			IC50, inhibition by 50% of the light-dependent ferricyanide reduction [1]: no activity and n.e.
O=C1O/C(=C\c2ccnc(Br)c2)C(c2ccc(F)cc2)=C1Cl [Compound 17]		150.3 to 152.8 °C	IC50, inhibition by 50% of the light-dependent ferricyanide reduction [1]: n.e. ^a
COc1ccc(Cl)cc1C1=C(Cl)C(=O)O/C1=C\c1ccc2c(c1)OCO2 [Compound 15]		134.9 to 136.2 °C	
O=C1C=C(c2ccc(O)cc2)/C(=C/c2ccc(O)cc2)O1 [Compound 5, rubrolide E]			IC50, inhibition by 50% of the light-dependent ferricyanide reduction [1]: ineffective; also recorded: lack activity; also recorded: n.e. ^a; Inhibition of rapeseed growth at 200 μM ([2]; 200 μM (20-fold higher concentration)): inhibitory; Inhibition of rapeseed growth [2]: inhibit rapeseed growth; Effect on growth of Raphanus sativus seedlings (phytotoxicity) [5]: ineffective
COc1ccc(/C=C2\OC(=O)C(Cl)=C2c2ccccc2)cc1 [Compound 12]	257 ± 273 µM		
O=C1O/C(=C\c2ccc(O)c(Br)c2)C(c2ccc(O)c(Br)c2)=C1Cl [Compound 3, rubrolide K]	8 ± 2.05 µM		
O=C1O/C(=C\c2ccc(O)c(Br)c2)C(c2cc(Br)c(O)c(Br)c2)=C1Cl [Compound 4, rubrolide O]	4.37 ± 0.8 µM		Effect on ferricyanide reduction under uncoupling and phosphorylating conditions [3]: progressive reduction of the activity; Effect on partial electron flow involving PSII only versus whole transport chain [4]: able to inhibit the electron transfer from PSII to the cytochrome b6f complex
O=C1O/C(=C\c2ccc(-c3ccccc3)s2)C(c2ccc(F)cc2)=C1Cl [Compound 16]	266 ± 272 µM	218.3 to 219.8 °C (dec.)	
O=C1O/C(=C\c2cc(Br)c(O)c(Br)c2)C(c2cc(Br)c(O)c(Br)c2)=C1Cl [Compound 1, rubrolide B]	8.62 ± 1.89 µM		
